{
  "source": "patent US20210244735A1",
  "about": "“COMPOSITIONS AND METHODS FOR TREATING MYELOFIBROSIS” (Impact Biomedicines, Inc., priority 2010, published 2021)",
  "key": {"[1]": {"experiment": "Phase 1 study: plasma pharmacokinetics, non-compartmental analysis", "format": "in vivo, human", "experimental": "Pharmacokinetics: The concentration—time curves of TG101348 in plasma were evaluated by a non-compartmental analysis (with the use of WinNonlin® software, version 5.2)."}, "[2]": {"experiment": "Bioavailability in multiple species", "conditions": "in vivo, oral"}, "[3]": {"experiment": "Drug substance blend compatibility with fillers and lubricants", "format": "physicochemical", "conditions": "blends with lactose, mannitol, MCC Avicel PH102, MCC ProSolv 90 HD; magnesium stearate, Pruv; 60° C./ambient humidity", "experimental": "A matrix of formulation blends was designed to study the compatibility of TG101348 di-HCl monohydrate with four fillers and two lubricants (Table 17). Blends were prepared at a scale of 2.5 g each by prescreening all components through a 500 μm sieve, blending all components except the lubricant using aTurbula T2B blender for 10 min at 22 rpm, screening the blend through a 500 μm sieve, blending for 10 min, adding lubricant (weight adjusted) and blending for 5 min The blends were manufactured and stored in 30 mL amber HDPE bottles under primary (60° C./ambient humidity) and backup conditions (40° C./75% RH, 25° C./60% RH, and 5° C.)."}, "[4]": {"experiment": "Compatibility with capsule shells, accelerated stability", "format": "physicochemical", "conditions": "250 mg filled capsules, 40° C./75% RH and 25° C./60% RH, t=1, 2, and 3 weeks", "experimental": "Hard gelatin and hydroxypropylmethyl cellulose (HPMC) capsule shells (size […]) were filled with 250 mg of TG101348 di-HCl monohydrate. The filled capsules were placed on accelerated stability (40° C./75% relative humidity (RH) and 25° C./60% RH). The capsules were packaged into 30 mL (1 oz) amber high density polyethylene (HDPE) bottles."}, "serum EPO and TPO": {"test_system": "serum EPO and TPO", "experiment": "Phase 1 study: serum EPO and TPO levels", "format": "in vivo, human", "conditions": "after treatment initiation (data not shown)"}, "[5]": {"test_system": "IL-6, IL-8, IL-2 and TNF-α", "experiment": "Phase 1 study: cytokine assessment by multiplexed sandwich ELISAs", "format": "in vivo, human", "conditions": "relative to baseline during treatment; dihydrochloride monohydrate", "experimental": "Cytokine Assessment: Samples for cytokine measurement were collected at baseline and every 4 weeks thereafter. Cytokine levels were measured using multiplexed sandwich ELISAs (Millipore, St. Charles, Mo.)."}, "[6]": {"conditions": "mean, 240 mg/day (n=3), Cycle 1 Day 28"}, "[7]": {"conditions": "mean, 360 mg/day (n=3), Cycle 1 Day 28"}, "[8]": {"conditions": "mean, 800 mg/day (n=5), Cycle 1 Day 28"}},
  "note": "Entries after “also recorded” stand apart in the source; their conditions may differ. Structures can show the parent of a compound that is named as a salt.",
  "data": [
    {"smiles": "Cc1cnc(Nc2ccc(OCCN3CCCC3)cc2)nc1Nc1cccc(S(=O)(=O)NC(C)(C)C)c1", "note": "[TG101348, N-tert-butyl-3-[(5-methyl-2-{[4-(2-pyrrolidin-1-ylethoxy)phenyl]amino}pyrimidin-4-yl)amino]benzenesulfonamide dihydrochloride monohydrate]", "values": [
      {"measurement": "plasma concentration over at least 24 hours after the dose", "setting": "[1]; 360 mg/day, Cycle 1 Day 28", "result": "above IC90"},
      {"measurement": "plasma concentration over at least 24 hours after the dose", "setting": "[1]; 520 mg/day, Cycle 1 Day 28", "result": "above 3×IC90"},
      {"measurement": "increase of mean steady-state AUC0-t over a 27-fold increase in dose", "setting": "[1]; in vivo", "result": "~88", "unit": "fold"},
      {"measurement": "increase of mean steady-state C. over a 27-fold increase in dose", "setting": "[1]; in vivo", "result": "approximately 54 fold"},
      {"measurement": "λz (elimination rate constant)", "setting": "[1]; mean, 30 mg/day (n=3), Cycle 1 Day 28", "result": 0.0354, "unit": "h⁻¹"},
      {"measurement": "λz (elimination rate constant)", "setting": "[1]; mean, 60 mg/day (n=3), Cycle 1 Day 28", "result": 0.0456, "unit": "h⁻¹"},
      {"measurement": "λz (elimination rate constant)", "setting": "[1]; mean, 120 mg/day (n=3), Cycle 1 Day 28", "result": 0.0305, "unit": "h⁻¹"},
      {"measurement": "T1/2 (terminal half-life)", "setting": "[1]; [6]", "result": 20.77, "unit": "h"},
      {"measurement": "λz (elimination rate constant)", "setting": "[1]; [6]", "result": 0.0352, "unit": "h⁻¹"},
      {"measurement": "Cmax", "setting": "[1]; [7]", "result": 1.71733, "unit": "µg/mL"},
      {"measurement": "T1/2 (terminal half-life)", "setting": "[1]; [7]", "result": 21.39, "unit": "h"},
      {"measurement": "λz (elimination rate constant)", "setting": "[1]; [7]", "result": 0.0353, "unit": "h⁻¹"},
      {"measurement": "λz (elimination rate constant)", "setting": "[1]; mean, 520 mg/day (n=3), Cycle 1 Day 28", "result": 0.0343, "unit": "h⁻¹"},
      {"measurement": "λz (elimination rate constant)", "setting": "[1]; mean, 680 mg/day (n=27), Cycle 1 Day 28", "result": 0.0301, "unit": "h⁻¹"},
      {"measurement": "T1/2 (terminal half-life)", "setting": "[1]; [8]", "result": 23.99, "unit": "h"},
      {"measurement": "λz (elimination rate constant)", "setting": "[1]; [8]", "result": 0.0331, "unit": "h⁻¹"},
      {"measurement": "bioavailability", "setting": "[2]", "result": "20 to 25", "unit": "%"},
      {"measurement": "compatibility with fillers and lubricants: changes in attributes (appearance, assay, impurities)", "setting": "[3]", "result": "no incompatibilities"},
      {"measurement": "changes in attributes (appearance, assay, impurities) in capsule shells", "setting": "[4]", "result": "No appreciable changes"},
      {"measurement": "serum EPO and to a lesser extent TPO levels relative to baseline", "setting": "serum EPO and TPO", "result": "increases"},
      {"measurement": "effect on cytokine levels (IL-6, IL-8, IL-2, TNF-α)", "setting": "[5]", "result": "no significant changes; also recorded: minimal effect; also recorded: no consistent changes"}
    ]}
  ]
}
